We go through 16 compounds from patent publication US9238656B2, “Imidazo[4,5-b]pyridine derivatives as ALK and JAK modulators for the treatment of proliferative disorders” (priority 2012, dated 2016).

Structures can show the parent of a compound that is named as a salt. Where two headings read alike, the source gives them in different places. Some results are limits rather than exact numbers.

Assay [1] has as its target baculovirus-expressed ALK (Homo sapiens, UniProt Q9UM73). Put plainly: ALK kinase inhibition, TRF/ELISA. The assay is classed as biochemical. The settings on record: read-out: ALK Potency. The method, then: Briefly, each 96-well plate was coated with 100 μL/well of 10 μg/mL substrate (GST-PLC-γ) in Tris-buffered saline (TBS). […] The reaction was initiated by adding enzyme (30 ng/mL ALK) and was allowed to proceed at 37° C. for 15 minutes. Detection of the phosphorylated product was performed by adding 100 μL/well of Eu-N1 labeled PT66 antibody (Perkin Elmer #AD0041). […] Data analysis was performed using ActivityBase (IDBS, Guilford, UK). IC50 values were calculated by plotting percent inhibition versus log10 of the concentration of compound and fitting to the nonlinear regression sigmoidal dose-response (variable slope) equation in XLFit (IDBS, Guilford, UK).
A general note: In an ELISA, binding on a coated surface is turned into a signal by an enzyme label.

Assay [2] addresses baculovirus-expressed JAK2 kinase (Homo sapiens, UniProt O60674). Briefly: biochemical. The following applies: 0.2 μM ATP; read-out: JAK2 Potency. The method, then: Compounds were tested for their ability to inhibit the kinase activity of baculovirus-expressed JAK2 kinase using the time-resolved fluorescence (TRF) detection system. […] The plates were coated with 100 μL/well of 10 μg/mL Neutravidin (Pierce #31000, Rockford, Ill.) in TBS at 37° C. for 2 h, followed by 100 μL/well of 1 μg/mL 15-mer peptide substrate (biotinyl-amino-hexanoyl-[…]-amide, Infinity Biotech Research and Resource, Aston, Pa.) at 37° C. for 1 h. […] Enzyme (15 ng/mL JAK2) was added and the reaction was allowed to proceed at room temperature for 20 min. […] Inhibition data were analyzed using ActivityBase (IDBS, Guilford, UK). IC50 values were calculated by plotting percent inhibition versus log10 of the concentration of compound and fitting to the nonlinear regression sigmoidal dose-response (variable slope) equation in XLFit (IDBS, Guilford, UK).

baculovirus-expressed ALK, sequence (Q9UM73 19-1620): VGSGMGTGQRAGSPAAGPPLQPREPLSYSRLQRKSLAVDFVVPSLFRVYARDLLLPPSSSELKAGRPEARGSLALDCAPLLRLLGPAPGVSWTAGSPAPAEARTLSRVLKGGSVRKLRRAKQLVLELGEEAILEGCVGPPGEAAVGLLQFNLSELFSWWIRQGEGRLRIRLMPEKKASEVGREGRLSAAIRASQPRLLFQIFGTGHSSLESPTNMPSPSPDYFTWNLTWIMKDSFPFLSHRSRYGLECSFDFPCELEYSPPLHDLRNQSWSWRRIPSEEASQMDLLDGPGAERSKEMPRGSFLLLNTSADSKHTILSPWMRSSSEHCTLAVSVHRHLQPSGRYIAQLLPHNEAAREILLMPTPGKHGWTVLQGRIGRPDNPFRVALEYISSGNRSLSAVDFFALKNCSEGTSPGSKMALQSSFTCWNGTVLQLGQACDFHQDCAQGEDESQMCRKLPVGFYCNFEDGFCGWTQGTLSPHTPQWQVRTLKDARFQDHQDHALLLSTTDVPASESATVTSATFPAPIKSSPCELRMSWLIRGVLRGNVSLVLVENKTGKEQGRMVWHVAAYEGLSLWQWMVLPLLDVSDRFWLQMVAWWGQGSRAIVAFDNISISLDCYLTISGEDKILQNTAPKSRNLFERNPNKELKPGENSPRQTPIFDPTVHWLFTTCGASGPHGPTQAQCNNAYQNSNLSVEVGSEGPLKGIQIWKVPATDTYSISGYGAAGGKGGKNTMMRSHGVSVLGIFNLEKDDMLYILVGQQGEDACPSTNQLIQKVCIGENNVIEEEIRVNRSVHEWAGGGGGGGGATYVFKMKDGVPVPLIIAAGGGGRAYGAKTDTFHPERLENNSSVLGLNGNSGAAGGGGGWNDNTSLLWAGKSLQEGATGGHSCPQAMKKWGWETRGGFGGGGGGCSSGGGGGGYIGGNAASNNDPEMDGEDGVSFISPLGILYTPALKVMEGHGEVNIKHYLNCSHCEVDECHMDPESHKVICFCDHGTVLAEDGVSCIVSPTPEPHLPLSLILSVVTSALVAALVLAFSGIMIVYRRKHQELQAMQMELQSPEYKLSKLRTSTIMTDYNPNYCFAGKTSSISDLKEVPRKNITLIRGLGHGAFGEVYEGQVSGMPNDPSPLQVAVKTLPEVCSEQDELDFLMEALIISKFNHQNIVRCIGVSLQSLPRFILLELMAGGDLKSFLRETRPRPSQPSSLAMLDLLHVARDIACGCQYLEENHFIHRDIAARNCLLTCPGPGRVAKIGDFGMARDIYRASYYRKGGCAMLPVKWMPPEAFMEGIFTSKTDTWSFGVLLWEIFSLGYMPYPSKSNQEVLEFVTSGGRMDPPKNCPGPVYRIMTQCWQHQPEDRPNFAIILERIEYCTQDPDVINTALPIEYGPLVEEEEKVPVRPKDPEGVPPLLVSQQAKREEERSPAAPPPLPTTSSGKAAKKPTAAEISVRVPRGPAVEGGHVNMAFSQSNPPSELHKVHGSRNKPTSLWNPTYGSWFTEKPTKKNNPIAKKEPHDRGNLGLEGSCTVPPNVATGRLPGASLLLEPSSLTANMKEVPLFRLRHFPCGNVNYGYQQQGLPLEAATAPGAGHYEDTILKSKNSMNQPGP
baculovirus-expressed JAK2 kinase, sequence (O60674 whole entry): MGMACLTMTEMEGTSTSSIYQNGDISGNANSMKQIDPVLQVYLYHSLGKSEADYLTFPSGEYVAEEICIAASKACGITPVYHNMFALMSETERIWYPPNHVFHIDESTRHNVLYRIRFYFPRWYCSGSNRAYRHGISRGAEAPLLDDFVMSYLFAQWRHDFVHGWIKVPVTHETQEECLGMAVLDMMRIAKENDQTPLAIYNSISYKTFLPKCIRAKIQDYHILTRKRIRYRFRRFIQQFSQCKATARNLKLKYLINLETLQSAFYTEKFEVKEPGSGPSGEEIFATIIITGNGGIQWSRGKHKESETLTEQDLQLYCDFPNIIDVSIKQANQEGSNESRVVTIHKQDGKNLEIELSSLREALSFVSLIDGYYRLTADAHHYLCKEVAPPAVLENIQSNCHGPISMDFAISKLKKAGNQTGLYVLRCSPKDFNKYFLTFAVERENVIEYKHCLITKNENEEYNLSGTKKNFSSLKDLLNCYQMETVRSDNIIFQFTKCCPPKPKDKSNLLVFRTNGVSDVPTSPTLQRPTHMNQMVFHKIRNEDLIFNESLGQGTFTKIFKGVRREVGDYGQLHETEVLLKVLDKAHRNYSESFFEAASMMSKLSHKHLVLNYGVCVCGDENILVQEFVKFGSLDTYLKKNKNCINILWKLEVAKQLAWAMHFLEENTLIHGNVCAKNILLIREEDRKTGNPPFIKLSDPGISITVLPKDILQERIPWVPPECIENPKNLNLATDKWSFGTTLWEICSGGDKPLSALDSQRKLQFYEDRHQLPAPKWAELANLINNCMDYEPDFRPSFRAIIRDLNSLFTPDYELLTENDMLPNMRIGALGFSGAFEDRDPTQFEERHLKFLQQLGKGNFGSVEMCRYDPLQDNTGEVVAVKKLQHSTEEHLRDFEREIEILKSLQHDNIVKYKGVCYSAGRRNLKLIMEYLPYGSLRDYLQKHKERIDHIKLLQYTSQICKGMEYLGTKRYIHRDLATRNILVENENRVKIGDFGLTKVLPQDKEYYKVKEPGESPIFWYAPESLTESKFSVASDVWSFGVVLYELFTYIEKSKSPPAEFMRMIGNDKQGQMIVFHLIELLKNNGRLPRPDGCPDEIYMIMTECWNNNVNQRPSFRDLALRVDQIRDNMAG

Consider `COc1ccc(-c2nc3c(N[C@H]4[C@@H](C(N)=O)[C@@H]5C=C[C@H]4C5)c(Cl)cnc3[nH]2)c(C2CCN(C[C@H](C)O)CC2)c1` [Compound XXXII, (1S,2S,3R,4R)-3-(6-Chloro-2-{2-[1-((S)-2-hydroxypropyl)-piperidin-4-yl]-4-methoxy-phenyl}-3H-imidazo[4,5-b]pyridin-7-ylamino)-bicyclo[2.2.1]hept-5-ene-2-carboxylic acid amide], for which the IC50 in assay [1] and in assay [2] was 1 to 10 µM throughout.
Turning to `CN1CCN(Cc2ccc(-c3nc4c(N[C@H]5[C@@H](C(N)=O)[C@@H]6C=C[C@H]5C6)c(Cl)cnc4[nH]3)cc2)CC1` [Compound XX, (1S,2S,3R,4R)-3-{6-Chloro-2-[4-(4-methyl-piperazin-1-ylmethyl)-phenyl]-3H-imidazo[4,5-b]pyridin-7-ylamino}-bicyclo[2.2.1]hept-5-ene-2-carboxylic acid amide; compound with trifluoro-acetic acid bis trifluoroacetic acid salt], the IC50 in assay [1] and in assay [2] was less than 0.1 µM throughout.
Consider `NC(=O)[C@@H]1[C@H](Nc2c(Cl)cnc3[nH]c(-c4cnc(N5CCOCC5)s4)nc23)[C@H]2C=C[C@@H]1C2` [Compound CCX, (1S,2S,3R,4R)-3-(6-chloro-2-(2-morpholinothiazol-5-yl)-3H-imidazo[4,5-b]pyridin-7-ylamino)bicyclo[2.2.1]hept-5-ene-2-carboxamide], for which the IC50 in assay [1] and in assay [2] was less than 0.1 µM each time.
For the compound `CN1CCN(c2nc(Cl)c(-c3nc4c(N[C@H]5[C@@H](C(=O)N(C)C)[C@@H]6C=C[C@H]5C6)c(Cl)cnc4[nH]3)s2)CC1` [Compound CCLXIV, (1S,2S,3R,4R)-3-((6-chloro-2-(4-chloro-2-(4-methylpiperazin-1-yl)thiazol-5-yl)-3H-imidazo[4,5-b]pyridin-7-yl)amino)-N,N-dimethylbicyclo[2.2.1]hept-5-ene-2-carboxamide], the IC50 in assay [1] and in assay [2] was less than 0.1 µM each time.
Regarding `NC(=O)[C@@H]1[C@H](Nc2c(Cl)cnc3[nH]c(-c4cccc(C(=O)NCC(=O)O)c4)nc23)[C@H]2C=C[C@@H]1C2` [Compound CCXXVII, 2-(3-(7-((1R,2R,3S,4S)-3-carbamoylbicyclo[2.2.1]hept-5-en-2-ylamino)-6-chloro-3H-imidazo[4,5-b]213yridine-2-yl)benzamido)acetic acid], the IC50 in assay [1] is 1 to 10 µM; in assay [2], less than 0.1 µM.
Take `NC(=O)[C@@H]1[C@H](Nc2c(Cl)cnc3[nH]c(-c4cccc(-n5cccn5)c4)nc23)[C@H]2C=C[C@@H]1C2` [Compound CXXV, (1S,2S,3R,4R)-3-[6-Chloro-2-(3-pyrazol-1-yl-phenyl)-3H-imidazo[4,5-b]pyridin-7-ylamino]-bicyclo[2.2.1]hept-5-ene-2-carboxylic acid amide]: the IC50 was 1 to 10 µM in assay [1] and less than 0.1 µM in assay [2].
For `C[C@@H](O)CN1CCC(n2cc(-c3nc4c(N[C@H]5[C@@H](C(N)=O)[C@@H]6C=C[C@H]5C6)c(Cl)cnc4[nH]3)cn2)CC1` [Compound LVIII, (1S,2S,3R,4R)-3-(6-Chloro-2-{1-[1-((R)-2-hydroxypropyl)-piperidin-4-yl]-1H-pyrazol-4-yl}-3H-imidazo[4,5-b]pyridine-7-ylamino)-bicyclo[2.2.1]hept-5-ene-2-carboxylic acid amide], the IC50 in assay [1] and in assay [2] was less than 0.1 µM each time.
In the case of `NC(=O)[C@@H]1[C@H](Nc2c(Br)cnc3[nH]c(-c4ccccc4F)nc23)[C@H]2C=C[C@@H]1C2` [Compound CXXXI, (1S,2S,3R,4R)-3-[6-Bromo-2-(2-fluoro-phenyl)-3H-imidazo[4,5-b]pyridin-7-ylamino]-bicyclo[2.2.1]hept-5-ene-2-carboxylic acid amide], the IC50 in assay [1] and in assay [2] was less than 0.1 µM in each case.
For `NC(=O)[C@@H]1[C@H](Nc2c(Cl)cnc3[nH]c(-c4ccc(Cl)cc4)nc23)[C@H]2C=C[C@@H]1C2` [Compound CXLI, (1S,2S,3R,4R)-3-[6-Chloro-2-(4-chloro-phenyl)-3H-imidazo[4,5-b]pyridin-7-ylamino]-bicyclo[2.2.1]hept-5-ene-2-carboxylic acid amide], the results for the IC50 in assay [1] and in assay [2] were 0.1 to 1 µM and less than 0.1 µM, respectively.
The matching figures for `NC(=O)[C@@H]1[C@H](Nc2c(Cl)cnc3[nH]c(-c4sc(N5CCOCC5)nc4Cl)nc23)[C@H]2C=C[C@@H]1C2` [Compound CLX, (1S,2S,3R,4R)-3-[6-Chloro-2-(4-chloro-2-morpholin-4-yl-thiazol-5-yl)-3H-imidazo[4,5-b]pyridin-7-ylamino]-bicyclo[2.2.1]hept-5-ene-2-carboxylic acid amide]: less than 0.1 µM and less than 0.1 µM.
With `NC(=O)CN1CCC(n2cc(-c3nc4c(N[C@H]5[C@@H](C(N)=O)[C@@H]6C=C[C@H]5C6)c(Cl)cnc4[nH]3)cn2)CC1` [Compound LXVI, (1S,2S,3R,4R)-3-{2-[1-(1-Carbamoylmethyl-piperidin-4-yl)-1H-pyrazol-4-yl]-6-chloro-3H-imidazo[4,5-b]pyridine-7-ylamino}-bicyclo[2.2.1]hept-5-ene-2-carboxylic acid amide, trifluoroacetic acid salt], the IC50 was 0.1 to 1 µM in assay [1] and less than 0.1 µM in assay [2].
The matching figures for `COc1cc(CN2CCOCC2)ccc1Nc1nc2c(N[C@H]3[C@@H](C(N)=O)[C@@H]4C=C[C@H]3C4)c(Cl)cnc2[nH]1` [Compound LXIX, (1S,2S,3R,4R)-3-[6-Chloro-2-(2-methoxy-4-morpholin-4-ylmethyl-phenylamino)-3H-imidazo[4,5-b]pyridine-7-ylamino]-bicyclo[2.2.1]hept-5-ene-2-carboxylic acid amide]: less than 0.1 µM and less than 0.1 µM.
The matching figures for `NC(=O)[C@@H]1[C@H](Nc2c(Cl)cnc3[nH]c(-c4ccc(N5CCOCC5)c(Cl)c4)nc23)[C@H]2C=C[C@@H]1C2` [Compound CXXXVII, (1S,2S,3R,4R)-3-[6-Chloro-2-(3-chloro-4-morpholin-4-yl-phenyl)-3H-imidazo[4,5-b]pyridin-7-ylamino]-bicyclo[2.2.1]hept-5-ene-2-carboxylic acid amide]: 0.1 to 1 µM and less than 0.1 µM.
The like results for `NC(=O)[C@@H]1[C@H](Nc2c(Br)cnc3[nH]c(-c4ccc(N5CCOCC5)cc4Cl)nc23)[C@H]2C=C[C@@H]1C2` [Compound CXXXIV, (1S,2S,3R,4R)-3-[6-Bromo-2-(2-chloro-4-morpholin-4-yl-phenyl)-3H-imidazo[4,5-b]pyridin-7-ylamino]-bicyclo[2.2.1]hept-5-ene-2-carboxylic acid amide] were, in that order, less than 0.1 µM and less than 0.1 µM.
On to `NC(=O)[C@@H]1[C@H](Nc2c(Br)cnc3[nH]c(-c4ccccc4Cl)nc23)[C@H]2C=C[C@@H]1C2` [Compound CXLIX, (1S,2S,3R,4R)-3-[6-Bromo-2-(2-chloro-phenyl)-3H-imidazo[4,5-b]pyridin-7-ylamino]-bicyclo[2.2.1]hept-5-ene-2-carboxylic acid amide], for which the IC50 in assay [1] is 0.1 to 1 µM; in assay [2], less than 0.1 µM.
In the case of `NC(=O)[C@@H]1[C@H](Nc2c(Cl)cnc3[nH]c(C4CCCNC4)nc23)[C@H]2C=C[C@@H]1C2` (single isomer, unassigned) [XIV], the IC50 in assay [1] (1 μM ATP (Km level)) and in assay [2] was greater than 10 µM in each case.
